Legend:
Type in all cases: in vivo
Myzus persicae = experiment: Larvae treatment Coccinella: infestation by Myzus persicae on Savoy cabbage; settings: Coccinella larvae added
Description: (§1) Foliar treatment is carried out using compound (I-5) in a concentration of 75 g of active compound per hectare.
(§2) Drench treatment is carried out using compound (I-5) in a concentration of 10 mg of active compound per plant.
(§3) Foliar treatment with Karate Zeon CS100 as toxic control was carried out in a concentration of 12.5 g of active compound per hectare.
Beneficial species: Coccinella septempunctata L2 larvae Pest: Myzus persicae
Each experiment is carried out in 3 repetitions with in each case 2 pot cages with in each case 5 larvae.
(§4) For the experiment, Savoy cabbage plants are grown in pots having a diameter of 14 cm, placed in a breeding cage and infested thoroughly with Myzus persicae. Per experiment, 6 pots having a well-established aphid population are selected and the aphids are rated by estimation of their number. The plants are treated with the active compound solution of the appropriate concentration.
After the spray coating has dried on, a quartz sand layer of a thickness of about 1 cm is applied to the soil in the pot, and the pot cage is put over the plant. In each case 5 Coccinella larvae are then counted out, and in each case 5 specimen are added to the plants in the pot cage.
For each plant, at the beginning the Myzus persicae number is estimated at the appropriate points in time and the dead, dying and alive larvae are counted separately. All larvae, i.e. all larvae present on the plant and the surface of the quartz sand base, are counted.

adult Orius laevigatus = experiment: Residual test with adult Orius laevigatus on bell-pepper leaves
Description: Foliar treatment is carried out using compound (I-5) in a concentration of 100 g of active compound per hectare.
Drench treatment is carried out using compound (I-5) in a concentration of 15 mg of active compound per plant.
(§5) Foliar treatment with Karate Zeon CS100 as toxic control was carried out in a concentration of 12.5 g of active compound per hectare. The active compound in its respective formulation is brought to the required concentration by dilution with water.
(§6) Bell-pepper plants cultivated in a greenhouse are treated with the respective active compound solutions. 1, 8, 16 and 23 days after the application, leaves are plucked from the test plants (5 samples per plot). The individual leaves are then mounted in test cages. 10 adult Orius laevigatus are added to each cage. The test cages are placed under controlled conditions in a climatized chamber. The kill of the insects is determined after 24, 48 and 72 hours of exposure.

[1] = system: adult Nesidiocoris tenuis; experiment: Residual test with adult Nesidiocoris tenuis on tomato leaves
Description: Foliar treatment is carried out using compound (I-5) in a concentration of 150 g of active compound per hectare.
as §2, §5
as §6, with “Tomato” for “Bell-pepper”, “15” for “16”, “22” for “23”, “Nesidiocoris tenuis” for “Orius laevigatus”

[2] = system: Anthocoris nemoralis adults; experiment: Treatment Anthocoris adult: kill of beneficial species adults on maize
Description: as §1, §2, §3
Beneficial species: Anthocoris nemoralis adults Pest: Metopolophium dirhodum
Per experiment, 3 repetitions with in each case 2 pot cages with in each case 5 adults are carried out.
as §4, with “maize” for “Savoy cabbage”, “Metopolophium dirhodum.” for “Myzus persicae.”
After the spray coating has dried on, a quartz sand layer of a thickness of about 1 cm is applied to the soil in the pot, and the pot cage is put over the plant.
In each case 5 Anthocoris adults are then counted out, and in each case 5 specimen are added to the plants in the pot cage.
For each plant, at the beginning the Metopolophium dirhodum number is estimated at the appropriate points in time and the dead, dying and alive adults are counted separately. All adults, i.e. all adults present on the plant and the surface of the quartz sand base, are counted.

[3] = 5 days after application, drench 10 mg a.i./plant
[4] = 5 days after application, foliar: (I-5) 75 g a.i./ha, Karate Zeon CS100 12.5 g a.i./ha

`O=C1C=C(N(Cc2ccc(Cl)nc2)CC(F)F)CO1` [compound (I-5), 4-{[(6-chloropyrid-3-yl)methyl](2,2-difluoroethyl)amino}furan-2(5H)-one] was tested. Which “Infestation by Myzus persicae (number per plant)” value (from here on “Infestation … (number per plant)”) (Myzus persicae; [3]) did it give?
The value was 165 number per plant.

And the “Infestation … (number per plant)” value (Myzus persicae; [4])?
Its value is 0 number per plant.

What about the “Infestation … (number per plant)” value (Myzus persicae; prior to application (baseline), drench 10 mg a.i./plant) of the same compound?
The value was 552 number per plant.

What about the “Infestation … (number per plant)” value (Myzus persicae; prior to application (baseline), foliar: (I-5) 75 g a.i./ha, Karate Zeon CS100 12.5 g a.i./ha) of the same compound?
Its value is 602 number per plant.

And the “Activity against adult Orius leavigatus on bell-pepper [% kill calculated according to Schneider-Orelli]” value (adult Orius laevigatus; leaves plucked 1 day after application, drench 15 mg a.i./plant)?
The value was 36.3%.

And the “Activity against adult Orius leavigatus on bell-pepper [% kill calculated according to Schneider-Orelli]” value (adult Orius laevigatus; leaves plucked 1 day after application, foliar: (I-5) 100 g a.i./ha, Karate Zeon CS100 12.5 g a.i./ha)?
Its value is 100%.

What about the “Activity against adult Orius leavigatus on bell-pepper [% kill calculated according to Schneider-Orelli]” value (adult Orius laevigatus; leaves plucked 8 days after application, drench 15 mg a.i./plant) of the same compound?
Its value is 86.7%.

What about the “Activity against adult Orius leavigatus on bell-pepper [% kill calculated according to Schneider-Orelli]” value (adult Orius laevigatus; leaves plucked 8 days after application, foliar: (I-5) 100 g a.i./ha, Karate Zeon CS100 12.5 g a.i./ha) of the same compound?
The value was 98.1%.

And the “Activity against adult Orius leavigatus on bell-pepper [% kill calculated according to Schneider-Orelli]” value (adult Orius laevigatus; leaves plucked 16 days after application, drench 15 mg a.i./plant)?
Its value is 72.3%.

What about the “Activity against adult Orius leavigatus on bell-pepper [% kill calculated according to Schneider-Orelli]” value (adult Orius laevigatus; leaves plucked 16 days after application, foliar: (I-5) 100 g a.i./ha, Karate Zeon CS100 12.5 g a.i./ha) of the same compound?
Its value is 100%.

And the “Activity against adult Orius leavigatus on bell-pepper [% kill calculated according to Schneider-Orelli]” value (adult Orius laevigatus; leaves plucked 23 days after application, drench 15 mg a.i./plant)?
Its value is 92.1%.

What about the “Activity against adult Orius leavigatus on bell-pepper [% kill calculated according to Schneider-Orelli]” value (adult Orius laevigatus; leaves plucked 23 days after application, foliar: (I-5) 100 g a.i./ha, Karate Zeon CS100 12.5 g a.i./ha) of the same compound?
Its value is 100%.

And the “Activity against adult Nesidiocoris tenuis on tomato [% kill according to Schneider-Orelli]” value ([1]; leaves plucked 1 day after application, drench 10 mg a.i./plant)?
Its value is 4.9%.

What about the “Activity against adult Nesidiocoris tenuis on tomato [% kill according to Schneider-Orelli]” value ([1]; leaves plucked 1 day after application, foliar: (I-5) 150 g a.i./ha, Karate Zeon CS100 12.5 g a.i./ha) of the same compound?
The value was 91.1%.

What about the “Activity against adult Nesidiocoris tenuis on tomato [% kill according to Schneider-Orelli]” value ([1]; leaves plucked 8 days after application, drench 10 mg a.i./plant) of the same compound?
Its value is 47.3%.

And the “Activity against adult Nesidiocoris tenuis on tomato [% kill according to Schneider-Orelli]” value ([1]; leaves plucked 8 days after application, foliar: (I-5) 150 g a.i./ha, Karate Zeon CS100 12.5 g a.i./ha)?
The value was 81.3%.

What about the “Activity against adult Nesidiocoris tenuis on tomato [% kill according to Schneider-Orelli]” value ([1]; leaves plucked 15 days after application, drench 10 mg a.i./plant) of the same compound?
The value was 24.4%.

And the “Activity against adult Nesidiocoris tenuis on tomato [% kill according to Schneider-Orelli]” value ([1]; leaves plucked 15 days after application, foliar: (I-5) 150 g a.i./ha, Karate Zeon CS100 12.5 g a.i./ha)?
The value was 32.1%.

What about the “Activity against adult Nesidiocoris tenuis on tomato [% kill according to Schneider-Orelli]” value ([1]; leaves plucked 22 days after application, drench 10 mg a.i./plant) of the same compound?
Its value is 66%.

And the “Activity against adult Nesidiocoris tenuis on tomato [% kill according to Schneider-Orelli]” value ([1]; leaves plucked 22 days after application, foliar: (I-5) 150 g a.i./ha, Karate Zeon CS100 12.5 g a.i./ha)?
Its value is 45.8%.

What about the “kill of adult Anthocoris nemoralis [% Abbott]” value (“kill … [% Abbott]” below) ([2]; 0 days after application, drench 10 mg a.i./plant) of the same compound?
Its value is 0%.

And the “kill … [% Abbott]” value ([2]; 0 days after application, foliar: (I-5) 75 g a.i./ha, Karate Zeon CS100 12.5 g a.i./ha)?
Its value is 0%.

What about the “kill … [% Abbott]” value ([2]; 1 day after application, drench 10 mg a.i./plant) of the same compound?
The value was 0%.

What about the “kill … [% Abbott]” value ([2]; 1 day after application, foliar: (I-5) 75 g a.i./ha, Karate Zeon CS100 12.5 g a.i./ha) of the same compound?
Its value is 0%.

What about the “kill … [% Abbott]” value ([2]; 3 days after application, drench 10 mg a.i./plant) of the same compound?
The value was 1.7%.

And the “kill … [% Abbott]” value ([2]; 3 days after application, foliar: (I-5) 75 g a.i./ha, Karate Zeon CS100 12.5 g a.i./ha)?
Its value is 3.3%.

And the “kill … [% Abbott]” value [2, 3]?
Its value is 3.3%.

What about the “kill … [% Abbott]” value [2, 4] of the same compound?
Its value is 6.7%.
